Laboratory results as given in patent US20240190858A1, “CRYSTALLINE FORMS, PHARMACEUTICAL COMPOSITIONS AND METHODS OF USE THEREOF” (priority 2022, published 2024).

Experiments:
[1] = system: MTAP-null OCI-LY19 cell line tumors; experiment: OCI-LY19 MTAP-null xenograft, switch from TNG908 to compound of Formula (I); type: in vivo, mice; conditions: 120 mg/kg BID
Description: The data is shown in FIG. 10A and FIG. 10B as mean±SEM. Regression is defined as final mean tumor volume <30% initial mean tumor volume.

[2] = Oral pharmacokinetics in cynomolgus monkey; type: in vivo, cynomolgous monkeys; conditions: 3 mg/kg via oral gavage, n=3
Description: The dotted lines indicate the HAP1 MTAP-null and MTAP WT GI50s from a 7-day viability assay the compound. The data is presented as mean±SD.

[3] = system: MTAP-null NCI-H838 NSCLC CDX; experiment: MTAP-null NCI-H838 NSCLC CDX model, combination with AGI-41998; type: in vivo; conditions: AGI-41998 at 10 mg/kg QD, minimum of 28 days
Protocol: Briefly the groups were treated for a minimum of 28 days and tumor-volumes were monitored for the indicated time period.

Cc1cc(NC(=O)C(=O)N2C[C@@H](C)CC[C@@H]2c2ccc3scnc3c2)cnc1N [TNG908]
tumor response under continuous dosing [1]: appear to have developed resistance

CCc1cc(NC(=O)C(=O)N2C[C@@H](C)CC[C@@H]2c2ccc3sc(C4CCN(C)CC4)nc3c2)cnc1N [compound of Formula (I), N-(6-amino-5-ethylpyridin-3-yl)-2-((2R,5S)-5-methyl-2-(2-(1-methylpiperidin-4-yl)benzo[d]thiazol-5-yl)piperidin-1-yl)-2-oxoacetamide]
pharmacokinetic properties [2]: good pharmacokinetic properties

AGI-41998
change in tumor volume [3]: increases in tumor volumes
